In patent US20230323410A1, “BACTERIAL CELLS AND METHODS FOR PRODUCTION OF 2-FLUORO-CIS,CIS-MUCONATE” (priority 2020, published 2023):
Read-outs that look alike come from different tables or passages of the source.

Tests used:
Pmuc3 pSEVA228 = assay type: cell-based, Pseudomonas putida; settings: 30 mM glucose
P. knackmussii [1] = assay: Shaken flask fermentation with 10 mM 2-FBz or 3-FBz; assay type: cell-based, Pseudomonas knackmussii; design: rate qp: unit not given here; settings: for qs: 10 mM 3-FBz; for product formation rate qp: from 2-FBz; for rate qp: from 3-FBz
XylS/Pm = assay type: cell-based, P. putida KT2440
CatR/Pcat = assay type: cell-based, P. putida KT2440
BenR/Pben = assay type: cell-based, P. putida KT2440
P. putida KT2440 [2] = settings: 30 mM glucose
P. knackmussii [3] = assay: Microtiter plate cultivation: growth with metabolites of the bioconversion; settings: 30 mM glucose
Pmuc10 = assay: as above; settings: 30 mM glucose; for Maximum growth rate μmax: Example 6 (improved method)
P. putida KT2440 [4] = assay: Shaken flask fermentation with 10 mM 2-FBz or 3-FBz; assay type: cell-based, Pseudomonas putida
[5] = Example 6 (improved method), 10 mM additive
[6] = Example 6 (improved method), 15 mM additive
[7] = Example 6 (improved method), 20 mM additive
[8] = Example 6 (improved method), 5.0 mM additive
[9] = Example 6 (improved method), 0.5 mM additive
[10] = Example 6 (improved method), 2.0 mM additive
[11] = Example 6 (improved method), 1.0 mM additive

For `O=C(O)c1cccc(F)c1` [Strain 3-FBz, 3-fluorobenzoic acid], the “Maximum growth rate μmax” value (Pmuc3 pSEVA228; Example 1, 10 mM additive) was 0.33 h⁻¹, the “Maximum growth rate μmax” value (Pmuc3 pSEVA228; Example 1, 15 mM additive) was 0.32 h⁻¹ and the “Maximum growth rate μmax” value (Pmuc3 pSEVA228; Example 1, 20 mM additive) was 0.30 h⁻¹. For the same compound, the “Maximum growth rate μmax” value (Pmuc3 pSEVA228; [5]) was 0.33 h⁻¹, the “Maximum growth rate μmax” value (Pmuc3 pSEVA228; [6]) was 0.32 h⁻¹ and the “Maximum growth rate μmax” value (Pmuc3 pSEVA228; [7]) was 0.30 h⁻¹. For the same compound, the qs (P. knackmussii [1]; Example 1) was 0.090 mmol gCDW^−1 h^−1, the qs (P. knackmussii [1]; Example 6) was 1.01 mmol gCDW^−1 h^−1 and the expression strength (XylS/Pm; 1.0 mM) was “close to the basal, uninduced expression”. The “GFP expression from Pm relative to the one brought about by 1.0 mM 3-mBz” value (XylS/Pm; 5.0 mM inducer) was 7%, the “GFP expression under Pm(ML1-17) control relative to the expression provided by Pm” value (XylS/Pm; compound as inducer) was 70% and the induction (CatR/Pcat; 0.5 mM) was “most strongly and fully induced”. For the same compound, the “increase in GFP expression over basal expression” value (BenR/Pben; 1.0 mM) was “No further increase”, the “increase of induction compared to the uninduced system” value (BenR/Pben; 5 mM) was 70% and the “maximum concentration in the presence of which the strain was able to grow” value (P. putida KT2440 [2]; substantially reduced μmax) was 10 mM. For the same compound, the “Maximum growth rate μmax” value (P. putida KT2440 [2]; Example 1, 5.0 mM additive) was 0.36 h⁻¹, the “Maximum growth rate μmax” value (P. putida KT2440 [2]; Example 1, 10 mM additive) was 0.13 h⁻¹ and the “Maximum growth rate μmax” value (P. putida KT2440 [2]; Example 1, 15 mM additive) was “no growth”. For the same compound, the “Maximum growth rate μmax” value (P. putida KT2440 [2]; Example 1, 20 mM additive) was “no growth”, the “Maximum growth rate μmax” value (P. putida KT2440 [2]; [8]) was 0.25 h⁻¹ and the “Maximum growth rate μmax” value (P. putida KT2440 [2]; [5]) was 0.13 h⁻¹. For the same compound, the “Maximum growth rate μmax” value (P. putida KT2440 [2]; [6]) was “no growth”, the “Maximum growth rate μmax” value (P. knackmussii [3]; Example 1, 5.0 mM additive) was “almost completely impaired” and the “Maximum growth rate μmax” value (P. knackmussii [3]; Example 1, 5.0 mM additive, listed as K-3-F-benzoate) was 0.01 h⁻¹. The “Maximum growth rate μmax” value (P. knackmussii [3]; Example 1, 10 mM additive) was “no growth”, the “Maximum growth rate μmax” value (P. knackmussii [3]; Example 1, 15 mM additive) was “no growth” and the “Maximum growth rate μmax” value (P. knackmussii [3]; Example 1, 20 mM additive) was “no growth”. The “Maximum growth rate μmax” value (P. knackmussii [3]; [8]) was “almost completely impaired”, the “Maximum growth rate μmax” value (P. knackmussii [3]; Example 6 (improved method), 5.0 mM additive, listed as K-3-F-benzoate) was 0.04 h⁻¹ and the “Maximum growth rate μmax” value (P. knackmussii [3]; [5]) was “no growth”. The “Maximum growth rate μmax” value (P. knackmussii [3]; [6]) was “no growth”, the “Maximum growth rate μmax” value (P. knackmussii [3]; [7]) was “no growth” and the “concentration up to which no toxic effects were observed” value (Pmuc10; FIG. 13) was at most 20 mM. The “highest concentration at which the strain was able to produce biomass” value (Pmuc10; FIG. 13, strongly reduced rate and maximum biomass concentration) was at most 50 mM, the “Maximum growth rate μmax” value (Pmuc10; 10 mM additive) was 0.45 h⁻¹ and the “Maximum growth rate μmax” value (Pmuc10; 20 mM additive) was 0.47 h⁻¹. For the same compound, the “Maximum growth rate μmax” value (Pmuc10; 30 mM additive) was 0.27 h⁻¹, the “Maximum growth rate μmax” value (Pmuc10; 40 mM additive) was 0.24 h⁻¹ and the “Maximum growth rate μmax” value (Pmuc10; 50 mM additive) was 0.20 h⁻¹.
In the case of `Oc1cccc(F)c1O` [Strain 3-FC, 3-fluorocatechol], the “Maximum growth rate μmax” value (Pmuc3 pSEVA228; Example 1, 0.5 mM additive) is reported as 0.61 h⁻¹, the “Maximum growth rate μmax” value (Pmuc3 pSEVA228; Example 1, 1.0 mM additive) is reported as 0.48 h⁻¹ and the “Maximum growth rate μmax” value (Pmuc3 pSEVA228; Example 1, 2.0 mM additive) is reported as 0.22 h⁻¹. For the same compound, the “Maximum growth rate μmax” value (Pmuc3 pSEVA228; [9]) was 0.74 h⁻¹, the “Maximum growth rate μmax” value (Pmuc3 pSEVA228; [10]) was 0.22 h⁻¹ and the “Maximum growth rate μmax” value (P. putida KT2440 [2]; Example 1, 0.5 mM additive) was 0.72 h⁻¹. For the same compound, the “Maximum growth rate μmax” value (P. putida KT2440 [2]; Example 1, 1.0 mM additive) was 0.65 h⁻¹, the “Maximum growth rate μmax” value (P. putida KT2440 [2]; Example 1, 2.0 mM additive) was 0.39 h⁻¹ and the “Maximum growth rate μmax” value (P. putida KT2440 [2]; [9]) was 0.71 h⁻¹. The “Maximum growth rate μmax” value (P. putida KT2440 [2]; [11]) was 0.68 h⁻¹, the “Maximum growth rate μmax” value (P. putida KT2440 [2]; [10]) was 0.36 h⁻¹ and the “Maximum growth rate μmax” value (P. putida KT2440 [2]; [8]) was “no growth”. For the same compound, the “Maximum growth rate μmax” value (P. knackmussii [3]; Example 1, 0.5 mM additive) was 0.28 h⁻¹, the “Maximum growth rate μmax” value (P. knackmussii [3]; Example 1, 1.0 mM additive) was 0.17 h⁻¹ and the “Maximum growth rate μmax” value (P. knackmussii [3]; Example 1, 2.0 mM additive) was 0.11 h⁻¹. The “Maximum growth rate μmax” value (P. knackmussii [3]; [9]) was 0.32 h⁻¹, the “Maximum growth rate μmax” value (P. knackmussii [3]; [11]) was 0.31 h⁻¹ and the “Maximum growth rate μmax” value (P. knackmussii [3]; [10]) was 0.12 h⁻¹. For the same compound, the “Maximum growth rate μmax” value (Pmuc10; 2.0 mM additive) was “no growth”.
`Oc1ccc(F)cc1O` [Strain 4-FC, 4-fluorocatechol] was tested, and the “Maximum growth rate μmax” value (Pmuc3 pSEVA228; Example 1, 0.5 mM additive) was 0.55 h⁻¹, the “Maximum growth rate μmax” value (Pmuc3 pSEVA228; Example 1, 1.0 mM additive) was 0.54 h⁻¹ and the “Maximum growth rate μmax” value (Pmuc3 pSEVA228; Example 1, 2.0 mM additive) was 0.35 h⁻¹. The “Maximum growth rate μmax” value (Pmuc3 pSEVA228; [9]) was 0.55 h⁻¹, the “Maximum growth rate μmax” value (Pmuc3 pSEVA228; [11]) was 0.50 h⁻¹ and the “Maximum growth rate μmax” value (Pmuc3 pSEVA228; [10]) was 0.28 h⁻¹. The “Maximum growth rate μmax” value (P. putida KT2440 [2]; Example 1, 0.5 mM additive) was 0.77 h⁻¹, the “Maximum growth rate μmax” value (P. putida KT2440 [2]; Example 1, 1.0 mM additive) was 0.64 h⁻¹ and the “Maximum growth rate μmax” value (P. putida KT2440 [2]; Example 1, 2.0 mM additive) was 0.48 h⁻¹. The “Maximum growth rate μmax” value (P. putida KT2440 [2]; [9]) was 0.72 h⁻¹, the “Maximum growth rate μmax” value (P. putida KT2440 [2]; [11]) was 0.52 h⁻¹ and the “Maximum growth rate μmax” value (P. putida KT2440 [2]; [10]) was 0.34 h⁻¹. The “Maximum growth rate μmax” value (P. putida KT2440 [2]; [8]) was “no growth”, the “Maximum growth rate μmax” value (P. knackmussii [3]; Example 1, 0.5 mM additive) was 0.34 h⁻¹ and the “Maximum growth rate μmax” value (P. knackmussii [3]; Example 1, 1.0 mM additive) was 0.32 h⁻¹. For the same compound, the “Maximum growth rate μmax” value (P. knackmussii [3]; Example 1, 2.0 mM additive) was 0.25 h⁻¹, the “Maximum growth rate μmax” value (P. knackmussii [3]; [9]) was 0.31 h⁻¹ and the “Maximum growth rate μmax” value (P. knackmussii [3]; [11]) was 0.26 h⁻¹. The “Maximum growth rate μmax” value (P. knackmussii [3]; [10]) was 0.17 h⁻¹.
For `O=C(O)/C=C\C=C(\F)C(=O)O` [Strain 2-FMA, 2-fluoro-cis,cis-muconate], the “combined product formation rate qp” value (P. putida KT2440 [4]; 10 mM 3-FBz) was 0.06 mmol gCDW^−1 h^−1, the “product formation rate qp” value (P. putida KT2440 [4]; from 10 mM 2-FBz) was 0.06 mmol gCDW^−1 h^−1 and the “product formation rate qp” value (P. knackmussii [1]; Example 1) was 0.05 mmol gCDW^−1 h^−1. The “product formation rate qp” value (P. knackmussii [1]; Example 6) was 0.03 mmol gCDW^−1 h^−1, the rate qp (P. knackmussii [1]; Example 1) was 0.05 and the rate qp (P. knackmussii [1]; Example 6) was 0.09. The “response to 1.0 mM as compared to 1.0 mM ccMA” value (CatR/Pcat; 1.0 mM) was 6.7 fold, the “reduction of growth rate and maximum biomass concentration” value (P. putida KT2440 [2]; 15 mM, FIG. 14) was 50% and the “concentration up to which the growth profile was similar to cultures with glucose only” value (P. putida KT2440 [2]; FIG. 14) was “up to 10 mM”. The “Maximum growth rate μmax” value (P. putida KT2440 [2]; [11]) was 0.86 h⁻¹, the “Maximum growth rate μmax” value (P. putida KT2440 [2]; [10]) was 1.00 h⁻¹ and the “Maximum growth rate μmax” value (P. putida KT2440 [2]; [8]) was 0.86 h⁻¹. For the same compound, the “Maximum growth rate μmax” value (P. putida KT2440 [2]; [5]) was 0.80 h⁻¹, the “Maximum growth rate μmax” value (P. putida KT2440 [2]; [6]) was 0.66 h⁻¹ and the “Maximum growth rate μmax” value (P. putida KT2440 [2]; [7]) was “no growth”. The “Maximum growth rate μmax” value (Pmuc10; 1 mM additive) was 1.24 h⁻¹, the “Maximum growth rate μmax” value (Pmuc10; 2.0 mM additive) was 1.20 h⁻¹ and the “Maximum growth rate μmax” value (Pmuc10; 5 mM additive) was 1.08 h⁻¹. For the same compound, the “Maximum growth rate μmax” value (Pmuc10; 10 mM additive) was 0.98 h⁻¹, the “Maximum growth rate μmax” value (Pmuc10; 15 mM additive) was 0.47 h⁻¹ and the “Maximum growth rate μmax” value (Pmuc10; 20 mM additive) was “no growth”.
